Consider ten compounds from PMC9151520 (Archives of Toxicology, 2022).

Assay [1] has as its system p53RE-bla HCT-116 cells.
In assay [2] the test system is p53 signaling (p53RE-bla HCT-116 cells). In words: cells. Format: cell-based.
Assay [3] has the same test system.
For assay [4] the test system is unchanged. The source holds these as a separate data set.
The mark [5] stands for this setting: Homo sapiens, HCT-116, read-out: p53 activation EC50, cherry pick confirmation.
The mark [6] stands for this setting: Homo sapiens, HCT-116, read-out: p53 activation EC50, primary screening.
[7] abbreviates: Homo sapiens, HCT-116, read-out: p53 activation efficacy, cherry pick confirmation.
[8] abbreviates: Homo sapiens, HCT-116, read-out: p53 activation efficacy, primary screening.
Where [9] appears, read: read-out: p53 activation EC50, cherry pick confirmation.
Where [10] appears, read: read-out: p53 activation EC50, primary screening.
Where [11] appears, read: read-out: Viability EC50, cherry pick confirmation.

Values joined by “and” are separate entries in the source; they are usually repeats but may differ in a detail not shown here. Equal entries are not always repeated. Where two headings read alike, the source gives them in different places.

By EC50 is commonly meant the concentration needed to bring the measured effect to its halfway point. With `COc1cccc2c1C(=O)c1c(O)c3c(c(O)c1C2=O)C[C@@](O)(C(=O)CO)C[C@@H]3O[C@H]1C[C@H](N)[C@H](O[C@@H]2CCCCO2)[C@H](C)O1` [Pirarubicin], in assay [1], the “Viability EC50, cherry pick confirmation” value was “inactive”; the “Viability EC50, primary screening” value is “inactive”; the “Viability efficacy, primary screening” value is “inactive”. In addition, the EC50 in assay [2] (setting [5]) stood at 7.61 µM. Moreover, the EC50 in assay [2] (setting [6]) turned out to be 2.19 µM. Besides, the Emax in assay [2] (setting [7]) stood at 287%. The Emax in assay [2] (setting [8]) stood at 142%. In assay [3], the “p53 activation EC50, cherry pick confirmation” value was “inactive”; the “p53 activation EC50, primary screening” value is “inactive”; the “p53 activation efficacy, cherry pick confirmation” value was “inactive”; the “p53 activation efficacy, primary screening” value was “inactive”. In assay [4], the “p53 activation EC50, cherry pick confirmation” value is “inactive”; the “p53 activation EC50, primary screening” value is “inactive”; the “p53 activation efficacy, cherry pick confirmation” value was “inactive”; the “p53 activation efficacy, primary screening” value was “inactive”.
As for `CC(CN1CC(=O)NC(=O)C1)N1CC(=O)NC(=O)C1` (centres unmarked) [Razoxane], in assay [1], the “Viability EC50, cherry pick confirmation” value is “inactive”; the “Viability EC50, primary screening” value was “inactive”; the “Viability efficacy, cherry pick confirmation” value was “inactive”; the “Viability efficacy, primary screening” value was “inactive”. The EC50 in assay [2] (setting [5]) was 20.9 µM. For the same compound, the EC50 in assay [2] (setting [6]) was 11.5 µM. Besides, in assay [2] (setting [7]), the Emax is 31.9%. Moreover, the Emax in assay [2] (setting [8]) was 60.2%. Also, in assay [3], the “p53 activation EC50, cherry pick confirmation” value was “inactive”; the “p53 activation EC50, primary screening” value was “inactive”; the “p53 activation efficacy, cherry pick confirmation” value was “inactive”; the “p53 activation efficacy, primary screening” value is “inactive”. In assay [4], the “p53 activation EC50, cherry pick confirmation” value is “inactive”; the “p53 activation EC50, primary screening” value was “inactive”; the “p53 activation efficacy, cherry pick confirmation” value is “inactive”; the “p53 activation efficacy, primary screening” value was “inactive”.
`CCCSc1ccc2nc(NC(=O)OC)[nH]c2c1` [Albendazole]: in assay [1], the “Viability EC50, cherry pick confirmation” value is “inactive”; the “Viability EC50, primary screening” value is “inactive”; the “Viability efficacy, cherry pick confirmation” value is “inactive”; the “Viability efficacy, primary screening” value was “inactive”. For the same compound, the EC50 in assay [2] (setting [5]) is 0.113 µM. Besides, the EC50 in assay [2] (setting [6]) turned out to be 0.517 µM. Also, the Emax in assay [2] (setting [7]) was determined as 31.1%. Also, the Emax in assay [2] (setting [8]) is 40.1%. Also, in assay [3], the “p53 activation EC50, cherry pick confirmation” value is “inactive”; the “p53 activation EC50, primary screening” value was “inactive”; the “p53 activation efficacy, cherry pick confirmation” value is “inactive”; the “p53 activation efficacy, primary screening” value was “inactive”. Also, in assay [4], the “p53 activation EC50, cherry pick confirmation” value is “inactive”; the “p53 activation EC50, primary screening” value is “inactive”; the “p53 activation efficacy, cherry pick confirmation” value is “inactive”; the “p53 activation efficacy, primary screening” value was “inactive”.
For the compound `CC(C)c1cccc(C(C)C)c1N1C(=O)c2ccc(O)cc2C1=O`, in assay [1], the “Viability EC50, cherry pick confirmation” value is “inactive”; the “Viability EC50, primary screening” value was “inactive”; the “Viability efficacy, cherry pick confirmation” value was “inactive”; the “Viability efficacy, primary screening” value is “inactive”. In assay [2], the “p53 activation efficacy, cherry pick confirmation” value came to 44.7367 and the “p53 activation efficacy, primary screening” value is 87.6647. In addition, the EC50 in assay [2] (setting [9]) is 3.1 µM. Further, the EC50 in assay [2] (setting [10]) came out at 3.93 µM. Moreover, in assay [3], the “p53 activation EC50, cherry pick confirmation” value was “inactive”; the “p53 activation EC50, primary screening” value was “inactive”; the “p53 activation efficacy, cherry pick confirmation” value is “inactive”; the “p53 activation efficacy, primary screening” value is “inactive”. Further, in assay [4], the “p53 activation EC50, cherry pick confirmation” value was “inactive”; the “p53 activation EC50, primary screening” value was “inactive”; the “p53 activation efficacy, cherry pick confirmation” value was “inactive”; the “p53 activation efficacy, primary screening” value was “inactive”.
As for `CCN(CC)C(=O)C(Cl)=C(C)OP(=O)(OC)OC` [Phosphamidon], in assay [1], the “Viability EC50, HLM” value was “inactive”; the “Viability EC50, No MS” value is “inactive”; the “Viability EC50, RLM” value is “inactive”; the “Viability Efficacy, No MS” value is “inactive”. Further, in assay [2], the “p53 activation EC50, No MS” value was “inactive” and the “p53 activation Efficacy, No MS” value was “inactive”. Moreover, the EC50 in assay [3] turned out to be 3.22 µM. In assay [3] (read-out: p53 activation EC50, RLM), the EC50 is 2.35 µM and 3.43 µM. For the same compound, the “p53 activation EC50, HLM” value in assay [4] was “inactive”. In assay [4] (read-out: p53 activation EC50, HLM), the EC50 was 5.82 µM.
As to `N#Cc1c[nH]cc1-c1cccc2c1OC(F)(F)O2` [Fludioxonil], in assay [1], the “Viability EC50, cherry pick confirmation” value was “inactive”; the “Viability EC50, primary screening” value was “inactive”; the “Viability efficacy, cherry pick confirmation” value was “inactive”; the “Viability efficacy, primary screening” value is “inactive”. In assay [2], the “p53 activation EC50, cherry pick confirmation” value is “inactive” and the “p53 activation efficacy, cherry pick confirmation” value was “inactive”. Moreover, the EC50 in assay [2] (setting [6]) stood at 15.6 µM. The Emax in assay [2] (setting [8]) turned out to be 65.1%. Moreover, in assay [3], the “p53 activation EC50, cherry pick confirmation” value was “inactive”; the “p53 activation EC50, primary screening” value is “inactive”; the “p53 activation efficacy, cherry pick confirmation” value is “inactive”; the “p53 activation efficacy, primary screening” value was “inactive”. Also, in assay [4], the “p53 activation EC50, cherry pick confirmation” value was “inactive”; the “p53 activation EC50, primary screening” value was “inactive”; the “p53 activation efficacy, cherry pick confirmation” value was “inactive”; the “p53 activation efficacy, primary screening” value is “inactive”.
As to `CC1=C(C(=O)Nc2ccccc2)S(=O)(=O)CCO1` [Oxycarboxin], in assay [1], the “Viability EC50, cherry pick confirmation” value was “inactive”; the “Viability EC50, primary screening” value is “inactive”; the “Viability efficacy, cherry pick confirmation” value is “inactive”; the “Viability efficacy, primary screening” value is “inactive”. The EC50 in assay [2] (setting [5]) was found to be 36.4 µM. Moreover, the EC50 in assay [2] (setting [6]) amounted to 21.2 µM. In assay [2] (setting [7]), the Emax was 82.6%. In addition, the Emax in assay [2] (setting [8]) came to 76%. Further, in assay [3], the “p53 activation EC50, cherry pick confirmation” value is “inactive”; the “p53 activation EC50, primary screening” value is “inactive”; the “p53 activation efficacy, cherry pick confirmation” value was “inactive”; the “p53 activation efficacy, primary screening” value is “inactive”. In assay [4], the “p53 activation EC50, cherry pick confirmation” value is “inactive”; the “p53 activation EC50, primary screening” value is “inactive”; the “p53 activation efficacy, cherry pick confirmation” value was “inactive”; the “p53 activation efficacy, primary screening” value was “inactive”.
Regarding `Oc1ccc(C2(c3ccc(O)cc3)c3ccccc3-c3ccccc32)cc1` [4,4'-(9H-Fluorene-9,9-diyl)diphenol], the “Viability EC50, primary screening” value in assay [1] is “inactive”. For the same compound, the EC50 in assay [1] (setting [11]) is 34.3 µM and 32.4 µM and 45.8 µM; in assay [1] (read-out: Viability EC50, primary screening), 49.5 µM; in assay [2] (setting [9]), 44.8 µM; in assay [2] (setting [10]) it was 47.6 µM. Besides, the “p53 activation efficacy, cherry pick confirmation” value in assay [2] was 169.95; in assay [3], “inactive”; in assay [4], “inactive”. Further, the “p53 activation efficacy, primary screening” value in assay [2] was 157.361; in assay [3], “inactive”; in assay [4] it was “inactive”. The “p53 activation EC50, cherry pick confirmation” value in assay [3] and in assay [4] was “inactive” each time. Also, the “p53 activation EC50, primary screening” value in assay [3] and in assay [4] was “inactive” in each case.
On to `[F][Sn]([c]1ccccc1)([c]1ccccc1)[c]1ccccc1` [Triphenyltin fluoride], for which the EC50 in assay [1] (setting [11]) is 3.63 µM and 5.54 µM and 3.92 µM; in assay [2] (setting [9]) it was 17.8 µM; in assay [2] (setting [10]), 7.69 µM. Further, the “p53 activation efficacy, cherry pick confirmation” value in assay [2] was 73.0027; in assay [3], “inactive”; in assay [4], “inactive”. Besides, the “p53 activation efficacy, primary screening” value in assay [2] is 39.9627; in assay [3] it was “inactive”; in assay [4], “inactive”. For the same compound, the “p53 activation EC50, cherry pick confirmation” value in assay [3] and in assay [4] was “inactive” throughout. Moreover, the “p53 activation EC50, primary screening” value in assay [3] and in assay [4] was “inactive” each time.
Consider `Cl.Nc1ccn([C@@H]2O[C@H](CO)[C@@H](O)C2(F)F)c(=O)n1`, for which, in assay [1], the “Viability EC50, cherry pick confirmation” value is “inactive”; the “Viability EC50, primary screening” value was “inactive”; the “Viability efficacy, cherry pick confirmation” value was “inactive”; the “Viability efficacy, primary screening” value is “inactive”. In addition, in assay [2], the “p53 activation efficacy, cherry pick confirmation” value came to 111.507 and the “p53 activation efficacy, primary screening” value is recorded as 94.321. Moreover, the EC50 in assay [2] (setting [9]) was found to be 0.205 µM. In addition, the EC50 in assay [2] (setting [10]) turned out to be 0.174 µM. Besides, in assay [3], the “p53 activation EC50, cherry pick confirmation” value is “inactive”; the “p53 activation EC50, primary screening” value was “inactive”; the “p53 activation efficacy, cherry pick confirmation” value is “inactive”; the “p53 activation efficacy, primary screening” value is “inactive”. In assay [4], the “p53 activation EC50, cherry pick confirmation” value was “inactive”; the “p53 activation EC50, primary screening” value is “inactive”; the “p53 activation efficacy, cherry pick confirmation” value was “inactive”; the “p53 activation efficacy, primary screening” value is “inactive”.
